Experiments:
[1] = system: SAM-II riboswitch; experiment: smFRET imaging of pseudoknot formation of surface-immobilized Cy3/Cy5-labeled riboswitch; assay type: binding, Sargasso Sea metagenome
Procedure: To reveal the underlying dynamics of SAM-II pseudoknot formation, single-molecule FRET (smFRET) (Aleman 2008; Lemay 2006; Brenner 2010) investigations were performed using the same labeling strategy as in Example 2 (i.e., A14^Cy3U and G52^Cy5U). To enable surface immobilization of the SAM-II riboswitch within a passivated microfluidic device and extended observation periods, a 5′-biotin moiety was included in the design (FIG. 2, FIG. 3).
smFRET data were acquired using a prism-based total internal reflection (TIR) microscope, where the biotinylated SAM-II riboswitch was surface immobilized within PEG-passivated, strepatividin-coated quartz microfluidic devices (Munro 2007). The Cy3 fluorophore was directly illuminated under 1.5 kW/cm^2 intensity at 532 nm (Laser Quantum). Photons emitted from both Cy3 and Cy5 were collected using a 1.2 NA 60× Plan-APO water-immersion objective (Nikon), where optical treatments were used to spatially separate Cy3 and Cy5 frequencies onto two, synchronized EMCCD devices (Evolve 512, Photometrics). Fluorescence data were acquired using MetaMorph acquisition software (Universal Imaging Corporation) at a rate of 66.7 frames per second (15 ms integration). Fluorescence trajectories were selected from the movie files for analysis using automated image analysis software coded in Matlab (The MathWorks). Fluorescence trajectories were selected based on the following criteria: a single catastrophic photobleaching event, at least 6:1 signal-to-background noise ratio (SNR) calculated from the total fluorescence intensity, and a FRET lifetime of at least 30 frames (450 ms) in any FRET state ≧0.15. smFRET trajectories were calculated from the acquired fluorescence data using the formula FRET=ICy5/(ICy3+ICy5), where ICy3 and ICy5 represent the Cy3 and Cy5 fluorescence intensities, respectively. Equilibrium smFRET experiments were performed in 50 mM KMOPS, 100 mM KCl, pH 7.5 buffer in the presence of an optimized oxygen scavenging and triplet state quenching cocktail in the presence of an oxygen scavenging environment (1 unit protocatchuate-3,4-dioxygenase, 2 mM protocatechuic acid; 1 mM Trolox, 1 mM cyclooctatetraene, 1 mM nitrobenzyl-alcohol) (Dave 2009). Concentrations of MgCl2 and SAM were as specified in the figure captions. […]
As previously described, the emission intensities of both Cy3 and Cy5 fluorophores were tracked simultaneously for individual surface-immobilized molecules using a wide-field, prism-based total internal reflection configuration, with a single-frequency light source (532 nm) (Munro 2007). […] The dynamic behaviors of individual molecules were assessed using hidden Markov modeling (HMM) procedures, and ensemble information was obtained by assembling single-molecule FRET trajectories into population FRET histograms. […]

[2] = system: SAM-II riboswitch; experiment: Bulk FRET detection of pseudoknot formation (steady-state fluorescence of Cy3/Cy5-labeled riboswitch); assay type: binding, Sargasso Sea metagenome
Procedure: FIG. 2 illustrates the construction of a Cy3/Cy5-labeled SAM-II construct sensitive to pseudoknot formation. (a) The strategy for synthesis, labeling and enzymatic ligation is shown, with the chemical structures of fluorophores and linkers provided in FIG. 3. (b) Anion-exchange (AE) HPLC trace of enzymatic ligation using T4 DNA ligase and a DNA splint at the start (0 h) and after completion (9 h). The product (retention time=37.3 min) was purified by AE-HPLC. (c) LC-ESI mass spectrum of purified ligation product. (d) Fluorescence emission response of the acceptor dye in the Cy5/Cy3 labeled SAM-II construct upon consecutive Mg^2+ and SAM addition under conditions where cRNA=0.5 μM, cSAM=5.0 μM, cmg=2.0 mM, 50 mM KMOPS, 100 mM KCl, 20° C., pH 7.5; λex=540 nm, λem=665 nm.
All experiments were measured on a Cary Eclipse spectrometer (Varian, Palo Alto, USA) equipped with a peltier block, a magnetic stirring device, and a RX2000 stopped-flow apparatus (Applied Photophysics Ltd., Leatherhead, UK).
Based on the reported structure of the SAM-II riboswitch (Gilbert 2008), an acceptor (Cy5) fluorophore was attached to the non-conserved nucleoside at position 14, and a donor (Cy3) fluorophore at the unpaired terminal residue at position 52 (FIG. 1a). […]

Structure (SMILES) | increase of the absolute value of the low-FRET state ([1]; 2 mM Mg2+, no SAM) | stabilization of the high-FRET state ([1]; 2 mM Mg2+, no SAM) | observed rate of increase of acceptor fluorescence emission (single exponential) ([2]; 6 equivalents of SAM, Cy3/Cy5-labeled riboswitch, cRNA=0.5 μM, 2.0 mM Mg2+, 20° C., pH 7.5) | fluorescence emission from the acceptor fluorophore achieved via FRET ([2]; addition of 10 equivalents of SAM) | average dwell time in the high-FRET state ([1]; 2 mM Mg2+ and 10 μM SAM) | stabilization of the high-FRET state ([1]; 2 mM Mg2+ and 10 μM SAM)
[Cl-].[Cl-].[Mg+2] [Mg^2+] | 0.08 | approximately 10 fold | – | – | – | –
C[S+](CC[C@H](N)C(=O)O)C[C@H]1O[C@@H](n2cnc3c(N)ncnc32)[C@H](O)[C@@H]1O (stereo partly drawn) [SAM, S-adenosylmethionine] | – | – | 1.19±0.06×10^−2 s^−1 | dramatically increase in intensity | approximately one | ~10 fold
